Measured values reported in patent publication EP0640601B1, “BENZAMIDE DERIVATIVE” (HOKURIKU SEIYAKU CO., LTD., priority 1991, dated 1992).
Structures can show the parent of a compound that is named as a salt. Where two headings read alike, the source gives them in different places.

Tested on: gastrointestinal motility
Test: Effects on gastrointestinal motility in conscious dog (force transducers implanted on stomach and colon, motor index)
Type: in vivo
Conditions: Canis lupus familiaris, iv, 20 min, about two hours after feeding, motor index for twenty minutes before and after administration; for change in vivo at 1 mg/kg: dose 1 mg/kg i.v.; for change in vivo at 0.1 mg/kg: dose 0.1 mg/kg i.v.
Procedure: Under systemical anesthesia, force transducers were chronically implanted to the stomach and the colon of the adult male or female dogs in a direction to measure circular muscle contraction according to the method of Ito et al. (Japanese Journal of Smooth Muscle Research, 13, 33, 1976). A silicone tube chronically attached into jugular vein for intravenous administration of test compounds. After the animal was recovered from the operation, test compounds were administered at about two hours after feeding while gastrointestinal motility was measured. The gastrointestinal motility was indicated as motor index, and the effects of test compounds were estimated by the change of motor index for twenty minutes before and after the administration. […]

[1] = colon, read-out: Change of Motor Index (%) Colon
[2] = stomach, read-out: Change of Motor Index (%) Stomach

Structure (SMILES) | change in vivo at 1 mg/kg [1] [%] | change in vivo at 1 mg/kg [2] [%] | change in vivo at 0.1 mg/kg [1] [%] | change in vivo at 0.1 mg/kg [2] [%]
COc1cc(N)c(Cl)cc1C(=O)NC1CCN(C(C)C(=O)O)CC1 (stereo not drawn) [Example 63, 2-[4-(4-Amino-5-chloro-2-methoxybenzamido)piperidino]propionic acid] | 157 | 130 | – | –
COc1cc(N)c(Cl)cc1C(=O)N[C@H]1C[C@H]2CCC[C@@H](C1)N2CCCCC(=O)O [Example 39, endo-5-[3-(4-Amino-5-chloro-2-methoxybenzamido)-9-azabicyclo[3.3.1]non-9-yl]valeric acid hydrochloride] | – | – | 159 | 135
COc1cc(N)c(Cl)cc1C(=O)NC1CCN(CC(=O)O)CC1 [Example 58, [4-[(4-Amino-5-chloro-2-methoxybenzamido)piperidino]acetic acid hydrochloride] | – | – | 218 | 181
CCOC(=O)CCCCCN1[C@@H]2CCC[C@H]1C[C@@H](NC(=O)c1cc(Cl)c(N)cc1OC)C2 [Example 25, Ethyl endo-6-[3-(4-amino-5-chloro-2-methoxybenzamido)-9-azabicyclo[3.3.1]non-9-yl]hexanoate] | 133 | 181 | – | –
CCOC(=O)CCCN1[C@@H]2CCC[C@H]1C[C@@H](NC(=O)c1cc(Cl)c(N)cc1OC)C2 [Example 24, Ethyl endo-4-[3-(4-amino-5-chloro-2-methoxybenzamido)-9-azabicyclo[3.3.1]non-9-yl]butyrate] | – | – | 135 | 116
COc1cc(N)c(Cl)cc1C(=O)N[C@H]1CCN(CC(=O)O)C[C@H]1OC (relative stereo) [Example 64, cis-[4-(4-Amino-5-chloro-2-methoxybenzamido)-3-methoxypiperidino]acetic acid] | – | – | 234 | 200
COc1cc(N)c(Cl)cc1C(=O)N[C@H]1C[C@H]2CCC[C@@H](C1)N2CCCCCC(=O)O [Example 36, endo-6-[3-(4-Amino-5-chloro-2-methoxybenzamido)-9-azabicyclo[3.3.1]non-9-yl]hexanoic acid hydrochloride] | 120 | 196 | – | –
COc1cc(N)c(Cl)cc1C(=O)N[C@H]1C[C@H]2CCC[C@@H](C1)N2CCCC(=O)O [Example 35, endo-4-[3-(4-Amino-5-chloro-2-methoxybenzamido)-9-azabicyclo[3.3.1]non-9-yl]butyric acid hydrochloride] | 136 | 187 | – | –
CCOC(=O)CN1[C@@H]2CCC[C@H]1C[C@@H](NC(=O)c1cc(Cl)c(N)cc1OC)C2 [Example 23, Ethyl endo-[3-(4-amino-5-chloro-2-methoxybenzamido)-9-azabicyclo[3.3.1]non-9-yl]acetate] | 133 | 134 | – | –
COc1cc(N)c(Cl)cc1C(=O)N[C@H]1C[C@H]2CCC[C@@H](C1)N2CCC(=O)O [Example 38, endo-3-[3-(4-Amino-5-chloro-2-methoxybenzamido)-9-azabicyclo[3.3.1]non-9-yl]propionic acid hydrochloride] | 140 | 146 | – | –
CCOC(=O)CCN1[C@@H]2CCC[C@H]1C[C@@H](NC(=O)c1cc(Cl)c(N)cc1OC)C2 [Example 27, Ethyl endo-3-[3-(4-amino-5-chloro-2-methoxybenzamido)-9-azabicyclo[3.3.1]non-9-yl]propionate] | – | – | 134 | 113
COc1cc(N)c(Cl)cc1C(=O)NC1CC2CCC(C1)N2CC(=O)O (stereo not drawn) [Example 43, endo-[3-(4-Amino-5-chloro-2-methoxybenzamido)-8-azabicyclo[3.2.1]oct-8-yl]acetic acid hydrochloride] | 505 | 166 | – | –
CCOC(=O)CN1[C@@H]2CC[C@H]1C[C@H](NC(=O)c1cc(Cl)c(N)cc1OC)C2 [Example 33, Ethyl exo-[3-(4-amino-5-chloro-2-methoxybenzamido)-8-azabicyclo[3.2.1]oct-8-yl]acetate] | 117 | 147 | – | –
CCOc1cc(N)c(Cl)cc1C(=O)NC1CC2CCCC(C1)N2CC(=O)O (stereo not drawn) [Example 41, endo-[3-(4-Amino-5-chloro-2-ethoxybenzamido)-9-azabicyclo[3.3.1]non-9-yl]acetic acid hydrochloride] | 172 | 118 | – | –
CCOC(=O)CN1[C@@H]2CC[C@H]1C[C@@H](NC(=O)c1cc(Cl)c(N)cc1OC)C2 [Example 32, Ethyl endo-[3-(4-amino-5-chloro-2-methoxybenzamido)-8-azabicyclo[3.2.1]oct-8-yl]acetate] | 158 | 177 | – | –
CCOC(=O)CN1CCC(NC(=O)c2cc(Cl)c(N)cc2OC)CC1 [Example 46, Ethyl [4-(4-amino-5-chloro-2-methoxybenzamido)piperidino]acetate hydrochloride] | 166 | 182 | – | –
COc1cc(N)c(Cl)cc1C(=O)N[C@H]1C[C@H]2CCC[C@@H](C1)N2CC(=O)O [Example 34, endo-[3-(4-Amino-5-chloro-2-methoxybenzamido)-9-azabicyclo[3.3.1]non-9-yl]acetic acid hydrochloride] | 192 | 187 | – | –
CCOC(=O)CCCCN1[C@@H]2CCC[C@H]1C[C@@H](NC(=O)c1cc(Cl)c(N)cc1OC)C2 [Example 28, Ethyl endo-5-[3-(4-amino-5-chloro-2-methoxybenzamido)-9-azabicyclo[3.3.1]non-9-yl]valerate] | 164 | 142 | – | –
